Where two headings read alike, the source gives them in different places.
Target: T1, CFTR (Homo sapiens, UniProt P13569, DEL508-508)
T1 construct: endogenous in cells; host or cells: primary human bronchial epithelial cells from CF subjects (F508del/MF-HBE), differentiated at air-liquid interface
Experiment: HBE assay: Ussing chamber assay of CFTR-mediated short-circuit currents
Type: cell-based
Details: for activation at 10 µM: read-out: HBE Activity at 10 μM (%)
Experimental: 1. Ussing Chamber Assay of CFTR-Mediated Short-Circuit Currents
(§1) Ussing chamber experiments were performed using human bronchial epithelial (HBE) cells derived from CF subjects heterozygous for F508del and a minimal function CFTR mutation (F508del/MF-HBE) and cultured as previously described (Neuberger T, Burton B, Clark H, Van Goor F Methods Mol Biol 2011:741:39-54). After four days the apical media was removed, and the cells were grown at an air liquid interface for >14 days prior to use.
(§2) To isolate the CFTR-mediated short-circuit (ISC) current, F508del/MF-HBE grown on Costar® Snapwell™ cell culture inserts were mounted in an Ussing chamber and the transepithelial ISC was measured under voltage-clamp recording conditions (Vhold=0 mV) at 37° C. The basolateral solution contained (in mM) 145 NaCl, 0.83 K2HPO4, 3.3 KH2PO4, 1.2 MgCl2, 1.2 CaCl2), 10 Glucose, 10 HEPES (pH adjusted to 7.4 with NaOH) and the apical solution contained (in mM) 145 NaGluconate, 1.2 MgCl2, 1.2 CaCl2), 10 glucose, 10 HEPES (pH adjusted to 7.4 with NaOH) and 30 μM amiloride to block the epithelial sodium channel. Forskolin (20 μM) was added to the apical surface to activate CFTR, followed by apical addition of a CFTR inhibitor cocktail consisting of BPO, GlyH-101, and CFTR inhibitor 172 (each at 20 μM final assay concentration) to specifically isolate CFTR currents. The CFTR-mediated ISC (μA/cm^2) for each condition was determined from the peak forskolin response to the steady-state current following inhibition.
2. Identification of Corrector Compounds
The activity of the CFTR corrector compounds on the CFTR-mediated ISC was determined in Ussing chamber studies as described above. The F508del/MF-HBE cell cultures were either incubated with the corrector compounds at a range of concentrations in combination with 1 μM Ivacaftor or were incubated with the corrector compounds at a single fixed concentration of 10 μM in combination with 1 μM Ivacaftor for 18-24 hours at 37° C. and in the presence of 20% human serum. The concentration of corrector compounds with 1 μM Ivacaftor during the 18-24 hours incubations was kept constant throughout the Ussing chamber measurement of the CFTR-mediated ISC to ensure compounds were present throughout the entire experiment.
Ussing Chamber Assay of CFTR-mediated short-circuit currents
as §1, with “(HIBE)” for “(HBE)”, “(F508del/MIF-HIBE)” for “(F508del/MF-HBE)”
as §2, with “KH2PO4,” for “K2HPO4,”
Identification of Corrector Compounds

[1] = Table 11, read-out: HBE Max Activity (%)

T1 sequence (P13569 with tags, fused parts or gaps DEL508-508): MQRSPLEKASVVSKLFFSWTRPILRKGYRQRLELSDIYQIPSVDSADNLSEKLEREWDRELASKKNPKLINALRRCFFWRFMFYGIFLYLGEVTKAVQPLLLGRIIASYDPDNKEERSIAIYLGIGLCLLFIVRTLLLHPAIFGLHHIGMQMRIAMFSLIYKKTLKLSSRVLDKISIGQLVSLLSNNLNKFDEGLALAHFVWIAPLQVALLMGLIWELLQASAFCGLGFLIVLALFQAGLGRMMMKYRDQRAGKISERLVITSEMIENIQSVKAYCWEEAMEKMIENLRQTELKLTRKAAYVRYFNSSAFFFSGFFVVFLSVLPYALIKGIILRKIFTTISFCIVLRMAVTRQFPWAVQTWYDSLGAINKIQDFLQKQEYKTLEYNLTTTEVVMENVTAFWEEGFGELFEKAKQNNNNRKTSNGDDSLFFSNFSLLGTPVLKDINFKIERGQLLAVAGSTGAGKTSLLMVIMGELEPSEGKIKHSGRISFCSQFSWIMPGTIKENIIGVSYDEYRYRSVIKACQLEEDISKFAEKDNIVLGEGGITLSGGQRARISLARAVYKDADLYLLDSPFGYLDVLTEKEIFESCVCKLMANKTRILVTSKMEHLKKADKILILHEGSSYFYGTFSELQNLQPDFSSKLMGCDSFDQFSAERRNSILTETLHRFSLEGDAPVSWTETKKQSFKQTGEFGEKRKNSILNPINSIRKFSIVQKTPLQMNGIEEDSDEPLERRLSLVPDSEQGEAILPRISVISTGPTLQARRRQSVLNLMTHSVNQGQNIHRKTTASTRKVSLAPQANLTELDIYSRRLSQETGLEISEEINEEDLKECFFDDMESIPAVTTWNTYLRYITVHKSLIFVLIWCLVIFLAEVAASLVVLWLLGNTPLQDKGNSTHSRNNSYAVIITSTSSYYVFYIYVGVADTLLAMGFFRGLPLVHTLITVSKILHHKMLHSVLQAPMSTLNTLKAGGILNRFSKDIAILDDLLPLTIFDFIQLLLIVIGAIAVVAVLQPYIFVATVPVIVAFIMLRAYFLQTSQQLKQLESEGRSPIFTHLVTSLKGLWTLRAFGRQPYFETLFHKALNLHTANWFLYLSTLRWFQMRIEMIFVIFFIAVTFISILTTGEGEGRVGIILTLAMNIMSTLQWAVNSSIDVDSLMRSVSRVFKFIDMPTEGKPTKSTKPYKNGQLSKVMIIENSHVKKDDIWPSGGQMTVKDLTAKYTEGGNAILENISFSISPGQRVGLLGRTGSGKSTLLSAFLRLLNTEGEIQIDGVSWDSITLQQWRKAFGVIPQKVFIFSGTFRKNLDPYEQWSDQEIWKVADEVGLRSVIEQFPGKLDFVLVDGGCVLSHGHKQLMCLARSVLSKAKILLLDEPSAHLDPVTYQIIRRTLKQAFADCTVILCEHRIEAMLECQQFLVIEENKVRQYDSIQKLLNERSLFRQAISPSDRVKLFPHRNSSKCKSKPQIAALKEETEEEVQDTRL

Cc1cccc(C)c1-c1cc2nc(n1)NS(=O)(=O)c1cccc(c1)C(=O)N(Cc1ncc(N3CCC(C)(C)CC3)cn1)[C@H](CC(C)(C)C)CO2 [Compound 117, (11R)-6-(2,6-dimethylphenyl)-12-[[5-(4,4-dimethyl-1-piperidyl)pyrimidin-2-yl]methyl]-11-(2,2-dimethylpropyl)-2,2-dioxo-9-oxa-2λ^6-thia-3,5,12,19-tetrazatricyclo[12.3.1.14,8]nonadeca-1(18),4(19),5,7,14,16-hexaen-13-one]
EC50 (Table 11, read-out: HBE EC50): < 1 µM | Emax [1]: > 60%

Cc1cccc(C)c1-c1cc2nc(n1)NS(=O)(=O)c1cccc(c1)C(=O)N(Cc1ncc(CC(C)C)cn1)[C@H](CC(C)(C)C)CO2 [Compound 120, (11R)-6-(2,6-Dimethylphenyl)-11-(2,2-dimethylpropyl)-12-[(5-isobutylpyrimidin-2-yl)methyl]-2,2-dioxo-9-oxa-2λ^6-thia-3,5,12,19-tetrazatricyclo[12.3.1.14,8]nonadeca-1(18),4(19),5,7,14,16-hexaen-13-one]
EC50 (Table 11, read-out: HBE EC50): < 1 µM | Emax [1]: > 60%

Cc1cccc(C)c1-c1cc2nc(n1)NS(=O)(=O)c1cccc(c1)C(=O)N(Cc1nccc(C(C)C)n1)[C@H](CC(C)(C)C)CO2 [Compound 121, (11R)-6-(2,6-Dimethylphenyl)-11-(2,2-dimethylpropyl)-12-[(4-isopropylpyrimidin-2-yl)methyl]-2,2-dioxo-9-oxa-2λ^6-thia-3,5,12,19-tetrazatricyclo[12.3.1.14,8]nonadeca-1(18),4(19),5,7,14,16-hexaen-13-one]
EC50 (Table 11, read-out: HBE EC50): < 1 µM | Emax [1]: > 60%

Cc1cccc(C)c1-c1cc2nc(n1)NS(=O)(=O)c1cccc(c1)C(=O)N(Cc1nccc(N(C)C(C)C)n1)[C@H](CC(C)(C)C)CO2 [Compound 123, (11R)-6-(2,6-Dimethylphenyl)-11-(2,2-dimethylpropyl)-12-[[4-[isopropyl(methyl)amino]pyrimidin-2-yl]methyl]-2,2-dioxo-9-oxa-2λ^6-thia-3,5,12,19-tetrazatricyclo[12.3.1.14,8]nonadeca-1(18),4(19),5,7,14,16-hexaen-13-one]
EC50 (Table 11, read-out: HBE EC50): < 1 µM | Emax [1]: > 60%

Cc1cccc(C)c1-c1cc2nc(n1)NS(=O)(=O)c1cccc(c1)C(=O)N(Cc1cccc(Oc3ccccc3)n1)[C@H](CC(C)(C)C)CO2 [Compound 126, (11R)-6-(2,6-Dimethylphenyl)-11-(2,2-dimethylpropyl)-2,2-dioxo-12-[(6-phenoxy-2-pyridyl)methyl]-9-oxa-2λ^6-thia-3,5,12,19-tetrazatricyclo[12.3.1.14,8]nonadeca-1(18),4(19),5,7,14,16-hexaen-13-one]
EC50 (HBE EC50 (μM), Table 10): < 1 µM | Emax (read-out: HBE Max activity (%)): > 60%

COCCCN(C)c1cccc(CN2C(=O)c3cccc(c3)S(=O)(=O)Nc3nc(cc(-c4c(C)cccc4C)n3)OC[C@H]2CC(C)(C)C)n1 [Compound 127, (11R)-6-(2,6-Dimethylphenyl)-11-(2,2-dimethylpropyl)-12-[[6-[3-methoxypropyl(methyl)amino]-2-pyridyl]methyl]-2,2-dioxo-9-oxa-2λ^6-thia-3,5,12,19-tetrazatricyclo[12.3.1.14,8]nonadeca-1(18),4(19),5,7,14,16-hexaen-13-one]
EC50 (Table 10, read-out: HBE EC50): < 1 µM | Emax (read-out: HBE Max activity (%)): > 60%

COCCN(CCOC)c1cccc(CN2C(=O)c3cccc(c3)S(=O)(=O)Nc3nc(cc(-c4c(C)cccc4C)n3)OC[C@H]2CC(C)(C)C)n1 [Compound 128, (11R)-12-[[6-[Bis(2-methoxyethyl)amino]-2-pyridyl]methyl]-6-(2,6-dimethylphenyl)-11-(2,2-dimethylpropyl)-2,2-dioxo-9-oxa-2λ^6-thia-3,5,12,19-tetrazatricyclo[12.3.1.14,8]nonadeca-1(18),4(19),5,7,14,16-hexaen-13-one]
EC50 (Table 10, read-out: HBE EC50): < 1 µM | activation at 10 µM: > 60% | Emax (read-out: HBE Max activity (%)): > 60%

COCC1CCCN1c1cccc(CN2C(=O)c3cccc(c3)S(=O)(=O)Nc3nc(cc(-c4c(C)cccc4C)n3)OC[C@H]2CC(C)(C)C)n1 (stereo partly drawn) [Compound 129, (11R)-6-(2,6-Dimethylphenyl)-11-(2,2-dimethylpropyl)-12-[[6-[2-(methoxymethyl)pyrrolidin-1-yl]-2-pyridyl]methyl]-2,2-dioxo-9-oxa-2λ^6-thia-3,5,12,19-tetrazatricyclo[12.3.1.14,8]nonadeca-1(18),4(19),5,7,14,16-hexaen-13-one]
EC50 (Table 10, read-out: HBE EC50): < 1 µM | activation at 10 µM: > 60% | Emax (read-out: HBE Max activity (%)): > 60%

CCN(c1cccc(CN2C(=O)c3cccc(c3)S(=O)(=O)Nc3nc(cc(-c4c(C)cccc4C)n3)OC[C@H]2CC(C)(C)C)n1)C(C)C [Compound 131, (11R)-6-(2,6-Dimethylphenyl)-11-(2,2-dimethylpropyl)-12-({6-[ethyl(propan-2-yl)amino]pyridin-2-yl}methyl)-9-oxa-2λ^6-thia-3,5,12,19-tetraazatricyclo[12.3.1.14,8]nonadeca-1(17),4,6,8(19),14(18),15-hexaene-2,2,13-trione]
EC50 (Table 11, read-out: HBE EC50): < 1 µM | Emax (read-out: HBE Max activity (%)): > 60%

Cc1cccc(C)c1-c1cc2nc(n1)NS(=O)(=O)c1cccc(c1)C(=O)N(Cc1cccc(N3CCC[C@H]3C)n1)[C@H](CC(C)(C)C)CO2 [Compound 132, (11R)-6-(2,6-Dimethylphenyl)-11-(2,2-dimethylpropyl)-12-({6-[(2R)-2-methylpyrrolidin-1-yl]pyridin-2-yl}methyl)-9-oxa-2λ^6-thia-3,5,12,19-tetraazatricyclo[12.3.1.14,8]nonadeca-1(17),4,6,8(19),14(18),15-hexaene-2,2,13-trione]
EC50 (HBE EC50 (μM), Table 11): < 1 µM | Emax (read-out: HBE Max activity (%)): > 60%

Cc1cccc(C)c1-c1cc2nc(n1)NS(=O)(=O)c1cccc(c1)C(=O)N(Cc1cccc(N(C)CC(C)(C)C)n1)[C@H](CC(C)(C)C)CO2 [Compound 133, (11R)-6-(2,6-Dimethylphenyl)-11-(2,2-dimethylpropyl)-12-[[6-[2,2-dimethylpropyl(methyl)amino]-2-pyridyl]methyl]-2,2-dioxo-9-oxa-2λ^6-thia-3,5,12,19-tetrazatricyclo[12.3.1.14,8]nonadeca-1(18),4(19),5,7,14,16-hexaen-13-one]
EC50 (Table 11, read-out: HBE EC50): < 1 µM | Emax [1]: > 60%

Cc1cccc(C)c1-c1cc2nc(n1)NS(=O)(=O)c1cccc(c1)C(=O)N(C[C@@H]1CN(CC(C)(C)C)CCO1)[C@H](CC(C)(C)C)CO2 [Compound 142, (11R)-6-(2,6-Dimethylphenyl)-11-(2,2-dimethylpropyl)-12-{[(2S)-4-(2,2-dimethylpropyl)morpholin-2-yl]methyl}-9-oxa-2λ^6-thia-3,5,12,19-tetraazatricyclo[12.3.1.14,8]nonadeca-1(17),4,6,8(19),14(18),15-hexaene-2,2,13-trione]
EC50 (Table 11, read-out: HBE EC50): < 1 µM | Emax [1]: > 60%

Cc1cccc(C)c1-c1cc2nc(n1)NS(=O)(=O)c1cccc(c1)C(=O)N(Cc1ccc(-c3c(C)n[nH]c3C)cc1)[C@H](CC(C)(C)C)CO2 [Compound 143, (11R)-12-{[4-(3,5-dimethyl-1H-pyrazol-4-yl)phenyl]methyl}-6-(2,6-dimethylphenyl)-11-(2,2-dimethylpropyl)-9-oxa-2λ^6-thia-3,5,12,19-tetraazatricyclo[12.3.1.14,8]nonadeca-1(17),4,6,8(19),14(18),15-hexaene-2,2,13-trione]
EC50 (Table 10, read-out: HBE EC50): < 1 µM | Emax (Table 10, read-out: HBE Max activity (%)): > 60%

From US20240150377A1, “MODULATORS OF CYSTIC FIBROSIS TRANSMEMBRANE CONDUCTANCE REGULATOR” (VERTEX PHARMACEUTICALS INCORPORATED, priority 2020, published 2024)
